Experiments:
L. jensenii = assay: High throughput assay screening of prebiotics; assay type: cell-based, Lactobacillus jensenii; design: key: ++: if growth and fermentation was equal to or greater than the positive control; +: if growth and fermentation was less than the positive control; +: if weak or no growth or fermentation; +^2: Bacteria demonstrated growth but no fermentation on the prebiotic; conditions: 2% w/v prebiotic in API 50 CHL media; for growth and fermentation vs positive control, Lj-2: L. jensenii KC17-4347-1, Bladder
Experimental: (§1) Most of the prebiotic compounds were initially tested in a high throughput assay screening process, described further in the Test Methods section herein, but three prebiotics (as noted in Table 3) were tested using a plate assay screening process as described in the Test Methods section herein. The prebiotics were tested against the commensal bacterial species of Lactobacillus crispatus, Lactobacillus gasseri, and Lactobacillus jensenii and against the pathogenic bacterial species of Streptococcus anginosus and Enterococcus faecalis as shown in Table 2. The bacterial species were taken from different sources, listed as culture collection, bladder, and vagina.
(§2) The results of the assay plate screening of the prebiotic compounds of Table 1 against the bacterial species of Table 2 is documented in Table 3 with the results being described by the following legend: • ++ if growth and fermentation was equal to or greater than the positive control • + if growth and fermentation was less than the positive control • […] if weak or no growth or fermentation • NT if not tested Some codes were not tested based on the use or non-use by the bacteria, as a way to efficiently move through the assay plate screening to the competition assay, described below.
(§3) • 1. Create a 2% w/v stock of prebiotic or positive control (glucose/dextrose) to be tested in API 50 CHL media (Biomerieux, Marcy-I'Étoile, France). API 50 CHL media contains minimal amounts of carbon for growth, and a bromocresol purple as a pH indicator of fermentation. Filter sterilize media with a […]. Store at 4-6° C. until use. • 2. Add 180 μL of media containing the prebiotic to a sterile, flat bottom 96-well microtiter plate (Corning, Corning, NY). • 3. From a freezer stock subculture the bacteria twice into De Man, Rogosa and Sharpe (MRS) broth (BD Difco, Becton Dickinson, Franklin Lakes, NJ), 37° C., stationary, anaerobic, overnight. • 4. From the last subculture, plate onto an MRS agar plate (Teknova, Hollister, CA) and grow 37° C., stationary, anaerobic, overnight. • 5. Create a bacterial suspension by using a sterile tipped swab to transfer colonies of bacteria into a PBS suspension blank to a 0.5 MacFarland (S. anginosus or E. faecalis) or a 1 MacFarland (Lactobacillus species) from the MRS agar plate. • 6. Enumerate the starting culture. • 7. Inoculate the media alone and media containing the prebiotic or positive control with 20 μL of the bacterial suspension. • 8. Place the plate into a spectrophotometer (Molecular Devices, San Jose, CA) and read the plate every 20 minutes for 24-48 hours. Read wavelengths (OD 430, OD 590, and OD 660). A color change to yellow caused by a drop in pH will be read by an increase in the OD430 value and a decrease in the OD590 value and is indicative of bacterial fermentation. An increase in OD660 values is indicative of an increase in turbidity and bacterial growth.

L. gasseri = assay: High throughput assay screening of prebiotics; assay type: cell-based, Lactobacillus gasseri; design: key: ++: if growth and fermentation was equal to or greater than the positive control; +: if growth and fermentation was less than the positive control; +: if weak or no growth or fermentation; +^2: Bacteria demonstrated growth but no fermentation on the prebiotic; conditions: 2% w/v prebiotic in API 50 CHL media; for growth and fermentation vs positive control, Lg-1: L. gasseri KC16-7135-1, Bladder; for growth and fermentation vs positive control, Lg-2: L. gasseri KC16-7171-1, Bladder
Experimental: as §1, §2, §3

[1] = test system: commensal and pathogenic bacterial species; assay: Prebiotic screening, summary in words across species; assay type: cell-based; conditions: commensal (L. crispatus, L. gasseri, L. jensenii) and pathogenic (S. anginosus, E. faecalis) species
Summary of the method: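 Prebiotics at 2% w/v stock in API 50 CHL medium with bromocresol purple, inoculated with bacteria and read every 20 min for 24-48 h at OD430/590 (fermentation) and OD660 (growth), scored against a glucose control. Some tested on MRS-based agar with the prebiotic in place of glucose; competition assay with L. crispatus and S. anginosus incubated 48 h anaerobically at 37 °C, then enumerated on MRS and TSA.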

E. faecalis = assay: High throughput assay screening of prebiotics; assay type: cell-based, Enterococcus faecalis; design: key: ++: if growth and fermentation was equal to or greater than the positive control; +: if growth and fermentation was less than the positive control; +: if weak or no growth or fermentation; +^2: Bacteria demonstrated growth but no fermentation on the prebiotic; conditions: 2% w/v prebiotic in API 50 CHL media; for growth and fermentation vs positive control, Ef-2: E. faecalis KC16-7171-3, Bladder; for growth and fermentation vs positive control, Ef-3: E. faecalis KC17-3969-2B, Bladder; for growth and fermentation vs positive control, Ef-4: E. faecalis KC17-4331-3, Bladder; for growth and fermentation vs positive control, Ef-1: E. faecalis ATCC BAA-2128, Culture Collection
Experimental: as §1, §2, §3

L. crispatus = assay: High throughput assay screening of prebiotics; assay type: cell-based, Lactobacillus crispatus; design: key: ++: if growth and fermentation was equal to or greater than the positive control; +: if growth and fermentation was less than the positive control; +: if weak or no growth or fermentation; +^2: Bacteria demonstrated growth but no fermentation on the prebiotic; conditions: 2% w/v prebiotic in API 50 CHL media; for growth and fermentation vs positive control, Lc-2: L. crispatus KC16-7134-3C, Bladder; for growth and fermentation vs positive control, Lc-3: L. crispatus KC18-1173-1, Bladder; for growth and fermentation vs positive control, Lc-4: L. crispatus KC18-1174-1, Vagina; for growth and fermentation vs positive control, Lc-1: L. crispatus ATCC 33820, Culture Collection
Experimental: as §1, §2, §3

S. anginosus = assay: High throughput assay screening of prebiotics; assay type: cell-based, Streptococcus anginosus; design: key: ++: if growth and fermentation was equal to or greater than the positive control; +: if growth and fermentation was less than the positive control; +: if weak or no growth or fermentation; +^2: Bacteria demonstrated growth but no fermentation on the prebiotic; conditions: 2% w/v prebiotic in API 50 CHL media; for growth and fermentation vs positive control, Sa-2: S. anginosus KC18-1131-3B, Bladder; for growth and fermentation vs positive control, Sa-1: S. anginosus ATCC 33397, Culture Collection
Experimental: as §1, §2, §3

Row | Compound | growth and fermentation vs positive control, Lj-1 (L. jensenii; L. jensenii KC17-4297-18, Bladder) | growth and fermentation vs positive control, Lg-1 (L. gasseri) | growth and fermentation vs positive control, Lg-2 (L. gasseri) | growth and fermentation vs positive control, Lg-3 (L. gasseri; L. gasseri KC18-1131-2, Bladder) | growth and fermentation vs positive control, Lg-4 (L. gasseri; L. gasseri KC18-1142-2, Bladder) | overall outcome of the screening of Table 3, in words [1] | growth and fermentation vs positive control, Ef-2 (E. faecalis) | growth and fermentation vs positive control, Ef-3 (E. faecalis) | growth and fermentation vs positive control, Ef-4 (E. faecalis) | growth and fermentation vs positive control, Lc-2 (L. crispatus) | growth and fermentation vs positive control, Lc-3 (L. crispatus) | growth and fermentation vs positive control, Lc-4 (L. crispatus) | growth and fermentation vs positive control, Sa-2 (S. anginosus) | growth and fermentation vs positive control, Lj-2 (L. jensenii) | growth and fermentation vs positive control, Ef-1 (E. faecalis) | growth and fermentation vs positive control, Lc-1 (L. crispatus) | growth and fermentation vs positive control, Sa-1 (S. anginosus)
1 | OC[C@H]1O[C@@H](O[C@H]2[C@H](O)[C@@H](O)[C@H](O)O[C@@H]2CO)[C@H](O)[C@@H](O)[C@@H]1O [D-Cellobiose] | + | + | ++ | ++ | ++ | able to provide growth on the commensal bacterial species, but also provided growth on the pathogenic bacterial species | ++ | ++ | ++ | ++ | + | + | ++ |  |  |  | 
2 | OCc1ccccc1O[C@@H]1O[C@H](CO)[C@@H](O)[C@H](O)[C@H]1O [Salicin] |  | ++ |  |  |  | able to provide growth on the commensal bacterial species, but also provided growth on the pathogenic bacterial species | ++ | ++ | ++ |  |  |  | ++ | ++ | ++ | ++ | ++
3 | Maltotriose |  | ++ | ++ |  |  | able to provide growth on the commensal bacterial species, but also provided growth on the pathogenic bacterial species | ++ | ++ | ++ | ++ | ++ | ++ | ++ | ++ | ++ | ++ | ++

Reference: patent US20230293560A1, “METHOD FOR MODULATING THE BLADDER MICROBIOME TO IMPROVE BLADDER HEALTH” (Kimberly-Clark Worldwide, Inc., priority 2020, published 2023)
